Source: ChEMBL document CHEMBL3044704, “Synthesis, characterization, antioxidant, and anticancer studies of 6-[3-(4-chlorophenyl)-1H-pyrazol-4-yl]-3-[(2-naphthyloxy)methyl][1,2,4]triazolo[3,4-b][1,3,4]thiadiazole in HepG2 cell lines” (Med Chem Res, 2011)
In brackets after ≈: the same amount, converted by molar mass. Activity calls are given as the source filed them. The calls are words filed in the database; no cut-off is given here.

Columns and labels:
[1] = tested on: Radical scavenging activity; test: Antioxidant activity assessed as inhibition of DPPH radical production after 20 min by spectrophotometric analysis; assay type: functional
[2] = Antioxidant activity assessed as inhibition of ABTS radical production after 20 min by spectrophotometric analysis; assay type: functional
HepG2 [3] = test: Induction of cell cycle arrest in Homo sapiens (human) HepG2 cells assessed as G2/M phase cells at 0.08 ug/ml after 24 hr by flow cytometric analysis (reference value: 12.92 +/- 0.27%); assay type: functional
HepG2 [4] = test: Induction of cell cycle arrest in Homo sapiens (human) HepG2 cells assessed as subG1 phase cells at 0.08 ug/ml after 24 hr by flow cytometric analysis (reference value: 3.57 +/- 0.03%); assay type: functional
HepG2 [5] = test: Induction of cell cycle arrest in Homo sapiens (human) HepG2 cells assessed as G2/M phase cells at 0.06 ug/ml after 24 hr by flow cytometric analysis (reference value: 12.92 +/- 0.27%); assay type: functional
HepG2 [6] = test: Induction of cell cycle arrest in Homo sapiens (human) HepG2 cells assessed as S phase cells at 0.06 ug/ml after 24 hr by flow cytometric analysis (reference value: 32.84 +/- 1.06%); assay type: functional
HepG2 [7] = test: Induction of cell cycle arrest in Homo sapiens (human) HepG2 cells assessed as S phase cells at 0.08 ug/ml after 24 hr by flow cytometric analysis (reference value: 32.84 +/- 1.06%); assay type: functional
HepG2 [8] = test: Cytotoxicity against Homo sapiens (human) HepG2 cells assessed as inhibition of [3H]thymidine incorporation incubated for 3 hr prior to [3h]thymidine incorporation measured after 2 hr by liquid scintillation counting; assay type: functional, cell-based
HepG2 [9] = test: Cytotoxicity against Homo sapiens (human) HepG2 cells assessed as chromatin condensation after 24 hr by Hoechst-staining method; assay type: functional, cell-based
HepG2 [10] = test: Induction of cell cycle arrest in Homo sapiens (human) HepG2 cells assessed as subG1 phase cells at 0.06 ug/ml after 24 hr by flow cytometric analysis (reference value: 3.57 +/- 0.03%); assay type: functional
HepG2 [11] = test: Induction of cell cycle arrest in Homo sapiens (human) HepG2 cells assessed as increase in subG1 phase cells after 24 hr by flow cytometric analysis; assay type: functional, cell-based
HepG2 [12] = test: Induction of cell cycle arrest in Homo sapiens (human) HepG2 cells assessed as G1 phase cells at 0.06 ug/ml after 24 hr by flow cytometric analysis (reference value: 50.68 +/- 1.42%); assay type: functional
HepG2 [13] = test: Cytotoxicity against Homo sapiens (human) HepG2 cells after 24 hr by MTT assay; assay type: functional, cell-based; conditions: HepG2, 24 h
HepG2 [14] = test: Induction of cell cycle arrest in Homo sapiens (human) HepG2 cells assessed as G1 phase cells at 0.08 ug/ml after 24 hr by flow cytometric analysis (reference value: 50.68 +/- 1.42%); assay type: functional

IC50 [1]	Structure (SMILES)	inhibition [2]	Activity (HepG2 [3])	Activity (HepG2 [4])	Activity (HepG2 [5])	Activity (HepG2 [6])	Activity (HepG2 [7])	inhibition (HepG2 [8])	Activity (HepG2 [9])	Activity (HepG2 [10])	Activity (HepG2 [11])	Activity (HepG2 [12])	IC50 (HepG2 [13])	Activity (HepG2 [14])
1.46 µg/mL (≈ 8.29 µM)	O=C1O[C@H]([C@@H](O)CO)C(O)=C1O [ASCORBIC ACID]	Active	–	–	–	–	–	–	–	–	–	–	–	–
1.023 µg/mL (≈ 2.23 µM)	Clc1ccc(-c2n[nH]cc2-c2nn3c(COc4ccc5ccccc5c4)nnc3s2)cc1	Active	11.33%	12.33%	10.58%	28.82%	23.68%	Dose-dependent effect	Dose-dependent effect	4%	Dose-dependent effect	56.59%	0.8 µg/mL (≈ 1.74 µM)	52.65%
